Values of other authors as cited in patent publication US20110190266A1, “5,6,6a,7,8,9-HEXAHYDRO-2H-PYRIDOPHTHALAZINONE INHIBITORS OF POLY(ADP-RIBOSE)POLYMERASE (PARP)” (priority 2010, published 2011).
Read-outs that look alike come from different tables or passages of the source.

What was measured:
[1] = target: PARP-1 (Homo sapiens, UniProt P09874)
[2] = system: BRCA2-deficient cell line V-C8; details: BRCA2-deficient V-C8 compared with the BRCA2 wild type control
[3] = system: BRCA2-deficient tumors
[4] = system: CAPAN-1 cells; details: CAPAN-1 cells in DMEM supplemented with FCS (20% v/v), glutamine and antibiotics

Sequence of PARP-1 (P09874 whole entry, species assumed): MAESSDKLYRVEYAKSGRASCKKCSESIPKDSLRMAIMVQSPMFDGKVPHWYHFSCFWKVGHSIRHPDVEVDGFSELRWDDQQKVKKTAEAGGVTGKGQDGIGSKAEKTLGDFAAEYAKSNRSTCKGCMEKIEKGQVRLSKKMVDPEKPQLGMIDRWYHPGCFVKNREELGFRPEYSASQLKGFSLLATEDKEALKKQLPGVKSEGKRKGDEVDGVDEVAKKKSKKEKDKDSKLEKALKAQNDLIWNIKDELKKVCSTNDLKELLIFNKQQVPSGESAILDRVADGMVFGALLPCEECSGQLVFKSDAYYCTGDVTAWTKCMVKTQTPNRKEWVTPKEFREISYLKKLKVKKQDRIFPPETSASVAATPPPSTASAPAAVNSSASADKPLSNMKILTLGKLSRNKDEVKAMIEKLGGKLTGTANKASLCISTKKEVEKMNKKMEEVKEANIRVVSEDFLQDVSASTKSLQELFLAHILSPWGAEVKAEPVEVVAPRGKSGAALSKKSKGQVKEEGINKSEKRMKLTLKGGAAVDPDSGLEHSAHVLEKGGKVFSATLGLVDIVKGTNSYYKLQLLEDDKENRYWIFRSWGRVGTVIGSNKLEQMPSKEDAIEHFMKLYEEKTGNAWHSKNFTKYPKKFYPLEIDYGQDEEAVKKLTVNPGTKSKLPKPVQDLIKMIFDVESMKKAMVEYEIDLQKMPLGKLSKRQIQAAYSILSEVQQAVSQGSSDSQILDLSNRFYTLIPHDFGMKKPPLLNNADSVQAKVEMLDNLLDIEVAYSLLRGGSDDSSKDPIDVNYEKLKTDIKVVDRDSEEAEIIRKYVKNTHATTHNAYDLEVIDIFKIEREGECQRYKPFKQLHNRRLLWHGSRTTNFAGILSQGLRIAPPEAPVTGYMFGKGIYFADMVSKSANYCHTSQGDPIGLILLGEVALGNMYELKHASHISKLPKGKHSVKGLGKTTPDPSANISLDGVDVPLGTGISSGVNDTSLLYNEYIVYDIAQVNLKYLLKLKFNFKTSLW

Compound | Ki ([1]; PARP-1 inhibitor) [nM] | sensitivity in clonogenic survival assay [2] | in vivo efficacy, tumor growth [3] | sensitivity to PARP inhibition in clonogenic survival assay [4] | Ki ([1]; moderately potent PARP-1 inhibitor) [nM]
CN(C)Cc1ccc(-c2nc3cccc4c3n2CCNC4=O)cc1 [AG14361] | 5 | exhibited sensitivity | – | – | –
O=C1CCC(=O)N1c1cc(Cc2n[nH]c(=O)c3ccccc23)ccc1F [KU0058684] | – | – | in vivo efficacy in blocking the growth of BRCA2-deficient tumors | showing sensitivity | –
Cc1nc2c(O)cccc2c(=O)[nH]1 [NU1025] | – | exhibited sensitivity | – | – | 50
